Source: the supplement of paper PMC11208160

Assay: recombinant UMI read abundance after kanamycin selection (control-corrected) (log10(CPM+1)); higher = more efficient recombination; extreme values may be limits of the assay; sequences stand for … in AGTGCAGAGAAAATCGGCCAGTTTTCTCTGCCTGCAGTCCGCATGCCGTGGGACCCCTTGGGTTCTAACCTGTTGCCTAGATTTATGCAGCGGACTGCCTTTCTCCCAAAGTGATAAACCGG…AGGTTGGTTTCACT; site = the 11-nt donor
How it was run: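 In a pooled Escherichia coli screen for the IS621 bridge recombinase, donor and donor-binding-loop pairs were each placed with a 12-nt UMI on a plasmid bearing a promoterless kanamycin gene. This library was co-electroporated with a target plasmid encoding a fixed target and T7-inducible recombinase, and cells were plated either on IPTG (0.07 mM) plus kanamycin or without selection, in two replicates each. Recombinant UMIs were PCR-amplified across the donor–target junction and sequenced, and counts were converted to CPM, averaged over replicates, scaled by control-derived factors and reported as log10(CPM+1).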

Row | Sequence | recombinant UMI read abundance (log10)
1 | ATCTAGACATGGACCGGTTTTCCCGGTAATCCGTATTTGAC (site ATCTATACTGT) | 0
2 | ATCTATCCATGGACCGGTTTTCCCGGTAATCCGTATTTGAC (site ATCTATACTGT) | 0
3 | ATCTATCCATGGACCGGTTTTCCCGGTAATCCGTATTTGAC (site ATCTATCCTGT) | 0.991
4 | ATCTATCCATGGACCGGTTTTCCCGGTAATCCGTATTTGAC (site ATCTATGCTGT) | 0
5 | ATCTATCCATGGACCGGTTTTCCCGGTAATCCGTATTTGAC (site ATCTATTCTGT) | 0
6 | ATCTATTCATGGACCGGTTTTCCCGGTAATCCGTATTTGAC (site ATCTATACTGT) | 0.00799
7 | ATCTATTCATGGACCGGTTTTCCCGGTAATCCGTATTTGAC (site ATCTATCCTGT) | 1.89
8 | ATCTATTCATGGACCGGTTTTCCCGGTAATCCGTATTTGAC (site ATCTATGCTGT) | 0
9 | ATCTATTCATGGACCGGTTTTCCCGGTAATCCGTATTTGAC (site ATCTATTCTGT) | 1.51
10 | ATGAAGGCATGGACCGGTTTTCCCGGTAATCCGTATTTGGC (site ATGAAGGCTGC) | 2.32
11 | ATGAAGGCATGGACCGGTTTTCCCGGTAATCCGTATTTGGC (site ATGCAGGCTGC) | 1.72
12 | ATGAAGGCATGGACCGGTTTTCCCGGTAATCCGTATTTGGC (site ATGGAGGCTGC) | 2.09
13 | ATGAAGGCATGGACCGGTTTTCCCGGTAATCCGTATTTGGC (site ATGTAGGCTGC) | 2.08
14 | ATGACGACATGGACCGGTTTTCCCGGTAATCCGTATTTGCA (site AGGAAGACTTG) | 0
15 | ATGACGACATGGACCGGTTTTCCCGGTAATCCGTATTTGCA (site ATGACGACTTG) | 1.81
16 | ATGACTACATGGACCGGTTTTCCCGGTAATCCGTATTTGAC (site AAGACTACTGT) | 0.508
17 | ATGACTACATGGACCGGTTTTCCCGGTAATCCGTATTTGAC (site ACGACTACTGT) | 1.92
18 | ATGACTACATGGACCGGTTTTCCCGGTAATCCGTATTTGAC (site AGGACTACTGT) | 0.907
19 | ATGACTACATGGACCGGTTTTCCCGGTAATCCGTATTTGAC (site ATGACTACTGT) | 2.54
20 | ATGACTGCATGGACCGGTTTTCCCGGTAATCCGTATTTGTC (site ATGACTGCTGA) | 1.47
21 | ATGAGCACATGGACCGGTTTTCCCGGTAATCCGTATTTGGA (site ATGAGCACTTC) | 0.82
22 | ATGAGGCCATGGACCGGTTTTCCCGGTAATCCGTATTTGAC (site ATAAGGCCTGT) | 0
23 | ATGAGGCCATGGACCGGTTTTCCCGGTAATCCGTATTTGAC (site ATCAGGCCTGT) | 0
24 | ATGAGGCCATGGACCGGTTTTCCCGGTAATCCGTATTTGAC (site ATGAGGCCTGT) | 0.716
25 | ATGAGGCCATGGACCGGTTTTCCCGGTAATCCGTATTTGAC (site ATTAGGCCTGT) | 0

Row | Sequence | recombinant UMI read abundance (log10)
26 | ATGATGGCATGGACCGGTTTTCCCGGTAATCCGTATTTGAC (site ATGATGGCTGT) | 2.7
27 | ATGCAGGCATGGACCGGTTTTCCCGGTAATCCGTATTTGGC (site ATGAAGGCTGC) | 0
28 | ATGCAGGCATGGACCGGTTTTCCCGGTAATCCGTATTTGGC (site ATGCAGGCTGC) | 2.77
29 | ATGCAGGCATGGACCGGTTTTCCCGGTAATCCGTATTTGGC (site ATGGAGGCTGC) | 0
30 | ATGCAGGCATGGACCGGTTTTCCCGGTAATCCGTATTTGGC (site ATGTAGGCTGC) | 0.922
31 | ATGCCACCATGGACCGGTTTTCCCGGTAATCCGTATTTGTA (site ATGCCACCTTA) | 0
32 | ATGCTGACATGGACCGGTTTTCCCGGTAATCCGTATTTGGT (site ATGCTGACTAC) | 1.32
33 | ATGCTTCCATGGACCGGTTTTCCCGGTAATCCGTATTTGCA (site ATGCTTCCTTG) | 1.47
34 | ATGGAGACATGGACCGGTTTTCCCGGTAATCCGTATTTGGT (site ATAGAGACTAC) | 1.66
35 | ATGGAGACATGGACCGGTTTTCCCGGTAATCCGTATTTGGT (site ATCGAGACTAC) | 0.157
36 | ATGGAGACATGGACCGGTTTTCCCGGTAATCCGTATTTGGT (site ATGGAGACTAC) | 1.83
37 | ATGGAGACATGGACCGGTTTTCCCGGTAATCCGTATTTGGT (site ATTGAGACTAC) | 0.681
38 | ATGGAGTCATGGACCGGTTTTCCCGGTAATCCGTATTTGGA (site ATGGAGTCTTC) | 2.86
39 | ATGGGAGCATGGACCGGTTTTCCCGGTAATCCGTATTTGCT (site ATGGGAGCTAG) | 2.19
40 | ATGGGCTCATGGACCGGTTTTCCCGGTAATCCGTATTTGTC (site ATGGGCTCTGA) | 2.97
41 | ATGGGGTCATGGACCGGTTTTCCCGGTAATCCGTATTTGAC (site ATGGGGTCTGT) | 3.47
42 | ATGGTTCCATGGACCGGTTTTCCCGGTAATCCGTATTTGTC (site ATGGTTCCTGA) | 1.67
43 | ATGTACACATGGACCGGTTTTCCCGGTAATCCGTATTTGAA (site ATGTACACTTT) | 1.82
44 | ATGTAGACATGGACCGGTTTTCCCGGTAATCCGTATTTGGC (site ATGTAGACTGC) | 2.91
45 | ATGTAGACATGGACCGGTTTTCCCGGTAATCCGTATTTGGC (site ATGTAGCCTGC) | 0
46 | ATGTAGACATGGACCGGTTTTCCCGGTAATCCGTATTTGGC (site ATGTAGGCTGC) | 2.14
47 | ATGTAGACATGGACCGGTTTTCCCGGTAATCCGTATTTGGC (site ATGTAGTCTGC) | 1.67
48 | ATGTAGCCATGGACCGGTTTTCCCGGTAATCCGTATTTGTT (site ATGTAGCCTAA) | 0.171
49 | ATGTAGGCATGGACCGGTTTTCCCGGTAATCCGTATTTGAC (site ATGTAGGCTGA) | 2.33
50 | ATGTAGGCATGGACCGGTTTTCCCGGTAATCCGTATTTGAC (site ATGTAGGCTGC) | 1.87

Row | Sequence | recombinant UMI read abundance (log10)
51 | ATGTAGGCATGGACCGGTTTTCCCGGTAATCCGTATTTGAC (site ATGTAGGCTGG) | 1.57
52 | ATGTAGGCATGGACCGGTTTTCCCGGTAATCCGTATTTGAC (site ATGTAGGCTGT) | 3.04
53 | ATGTAGTCATGGACCGGTTTTCCCGGTAATCCGTATTTGGC (site ATGTAGACTGC) | 1.85
54 | ATGTAGTCATGGACCGGTTTTCCCGGTAATCCGTATTTGGC (site ATGTAGCCTGC) | 0
55 | ATGTAGTCATGGACCGGTTTTCCCGGTAATCCGTATTTGGC (site ATGTAGGCTGC) | 0
56 | ATGTAGTCATGGACCGGTTTTCCCGGTAATCCGTATTTGGC (site ATGTAGTCTGC) | 3.26
57 | ATGTATGCATGGACCGGTTTTCCCGGTAATCCGTATTTGGC (site ATGTAAGCTGC) | 1.52
58 | ATGTATGCATGGACCGGTTTTCCCGGTAATCCGTATTTGGC (site ATGTACGCTGC) | 1.51
59 | ATGTATGCATGGACCGGTTTTCCCGGTAATCCGTATTTGGC (site ATGTAGGCTGC) | 0.86
60 | ATGTATGCATGGACCGGTTTTCCCGGTAATCCGTATTTGGC (site ATGTATGCTGC) | 3.22
61 | ATGTCCTCATGGACCGGTTTTCCCGGTAATCCGTATTTGTA (site ATGTCCTCTTA) | 2.5
62 | ATGTCGTCATGGACCGGTTTTCCCGGTAATCCGTATTTGTA (site ATGTCGTCTTA) | 1.95
63 | ATGTGCCCATGGACCGGTTTTCCCGGTAATCCGTATTTGCG (site ATGTGCCCTCG) | 0
64 | ATGTTCCCATGGACCGGTTTTCCCGGTAATCCGTATTTGTG (site AAGTTCCCTCA) | 0.0217
65 | ATGTTCCCATGGACCGGTTTTCCCGGTAATCCGTATTTGTG (site ACGTTCCCTCA) | 0.0446
66 | ATGTTCCCATGGACCGGTTTTCCCGGTAATCCGTATTTGTG (site AGGTTCCCTCA) | 0.0415
67 | ATGTTCCCATGGACCGGTTTTCCCGGTAATCCGTATTTGTG (site ATGTTCCCTCA) | 0.419
68 | ATGTTCGCATGGACCGGTTTTCCCGGTAATCCGTATTTGTA (site ATGTTCGCTTA) | 2.46
69 | ATGTTTGCATGGACCGGTTTTCCCGGTAATCCGTATTTGAT (site ATGTTTGCTAT) | 2.16
70 | ATTAAACCATGGACCGGTTTTCCCGGTAATCCGTATTTGCC (site ATTAAACCTGG) | 0
71 | ATTAAAGCATGGACCGGTTTTCCCGGTAATCCGTATTTGTA (site ATTAAAGCTTA) | 2.6
72 | ATTAAGACATGGACCGGTTTTCCCGGTAATCCGTATTTGGT (site ATTAAGACTAC) | 1.07
73 | ATTAAGACATGGACCGGTTTTCCCGGTAATCCGTATTTGGT (site ATTCAGACTAC) | 0.417
74 | ATTAAGACATGGACCGGTTTTCCCGGTAATCCGTATTTGGT (site ATTGAGACTAC) | 0.577
75 | ATTAAGACATGGACCGGTTTTCCCGGTAATCCGTATTTGGT (site ATTTAGACTAC) | 0.285
